Measurements taken from ChEMBL document CHEMBL4811222, “Antitumor Activity of Asperphenin B by Induction of Apoptosis and Regulation of Glyceraldehyde-3-phosphate Dehydrogenase in Human Colorectal Cancer Cells” (J Nat Prod, 2021).
Active and inactive are the calls of the source. No cut-off for these calls is given here.

Tests used:
RKO [1] = assay: Induction of cell cycle arrest in human RKO cells assessed as accumulation at G2/M phase at 2.5 uM after 24 hrs by RNase A/propidium iodide staining based flow cytometric analysis (reference value: 24.63 %); format: functional
RKO [2] = assay: Induction of apoptosis in human RKO cells assessed as modulation of survivin expression level after 48 hrs by Western blotting analysis; format: functional, cell-based; conditions: dose 2.5-10 µM
RKO [3] = assay: Suppression of GAPDH protein expression in human RKO cells after 24 hrs by Western blotting analysis; format: functional, cell-based; conditions: dose 2.5-10 µM
RKO [4] = assay: Induction of cell cycle arrest in human RKO cells assessed as accumulation at sub-G1 phase at 2.5 uM after 24 hrs by RNase A/propidium iodide staining based flow cytometric analysis (reference value: 0.40 %); format: functional
RKO [5] = assay: Induction of apoptosis in human RKO cells assessed as modulation of cleaved caspase 3 expression level after 48 hrs by Western blotting analysis; format: functional, cell-based; conditions: dose 2.5-10 µM
RKO [6] = assay: Induction of apoptosis in human RKO cells assessed as modulation of p53 expression level after 48 hrs by Western blotting analysis; format: functional, cell-based; conditions: dose 2.5-10 µM
CCD-841CoN = assay: Antiproliferative activity against human CCD-841CoN cells assessed as inhibition of cell growth incubated for 72 hrs by SRB assay; format: cell-based
HCT-116 [7] = assay: Downregulation of Snail expression in […] at 3 to 6 uM after 24 hrs by Western blotting analysis; format: functional, cell-based; conditions: dose 3-6 µM
RKO [8] = assay: Induction of cell cycle arrest in human RKO cells assessed as accumulation at S phase at 2.5 uM after 24 hrs by RNase A/propidium iodide staining based flow cytometric analysis (reference value: 24.20 %); format: functional
RKO [9] = assay: Induction of cell cycle arrest in human RKO cells assessed as accumulation at G2/M phase at 2.5 uM after 48 hrs by RNase A/propidium iodide staining based flow cytometric analysis (reference value: 24.63 %); format: functional
HCT-116 [10] = assay: Downregulation of N-Cadherin expression in […] at 3 to 6 uM after 24 hrs by Western blotting analysis; format: functional, cell-based; conditions: dose 3-6 µM
RKO [11] = assay: Induction of cell cycle arrest in human RKO cells assessed as accumulation at G2/M phase at 1.25 uM after 24 hrs by RNase A/propidium iodide staining based flow cytometric analysis (reference value: 24.38 %); format: functional
RKO [12] = assay: Induction of apoptosis in human RKO cells assessed as decrease in survivin expression at 2.5 uM by Western blotting analysis; format: functional, cell-based; conditions: time 12-48 hrs, TDE = time-dependent effect
RKO [13] = assay: Induction of cell cycle arrest in human RKO cells assessed as upregulation of phospho-Chk1 expression at 1.25 to 5 uM measured after 24 hrs by Western blot analysis; format: functional, cell-based; conditions: dose 1.25-5 µM
RKO [14] = assay: Induction of E-cadherin expression in human RKO cells after 24 hrs by Western blotting analysis; format: functional, cell-based
RKO [15] = assay: Induction of cell cycle arrest in human RKO cells assessed as accumulation at S phase at 1.25 uM after 24 hrs by RNase A/propidium iodide staining based flow cytometric analysis (reference value: 24.20 %); format: functional
[16] = biological target: Glyceraldehyde-3-phosphate dehydrogenase (Homo sapiens) (UniProt P04406); assay: Inhibition of GAPDH activity (unknown origin) after 1 hr; conditions: dose 0.01-10 µM
RKO [17] = assay: Induction of cell cycle arrest in human RKO cells assessed as accumulation at sub-G1 phase at 1.25 uM after 24 hrs by RNase A/propidium iodide staining based flow cytometric analysis (reference value: 0.40 %); format: functional
RKO [18] = assay: Induction of cell cycle arrest in human RKO cells assessed as accumulation at G0/G1 phase at 2.5 uM after 36 hrs by RNase A/propidium iodide staining based flow cytometric analysis (reference value: 60.58 %); format: functional
HCT-116 [19] = assay: Antiinvasive activity against human HCT116 cells implanted in nude mouse assessed as inhibition of liver cells invasion after 24 hrs by transwell assay; format: functional, cell-based; conditions: dose 3-6 µM
RKO [20] = assay: Induction of cell cycle arrest in human RKO cells assessed as upregulation of p-Cdc2 at Y15 residue expression measured after 24 hrs by Western blot analysis; format: functional, cell-based; conditions: dose 1.25-5 µM
SW480 = assay: Antiproliferative activity against human SW480 cells assessed as inhibition of cell growth incubated for 72 hrs by SRB assay; format: functional, cell-based; conditions: SW480, 72 h
RKO [21] = assay: Induction of cell cycle arrest in human RKO cells assessed as accumulation at sub-G1 phase at 2.5 uM after 24 hrs by RNase A/propidium iodide staining based flow cytometric analysis (reference value: 0.89 %); format: functional
RKO [22] = assay: Induction of cell cycle arrest in human RKO cells assessed as accumulation at S phase at 2.5 uM after 12 hrs by RNase A/propidium iodide staining based flow cytometric analysis (reference value: 13.33 %); format: functional
RKO [23] = assay: Induction of cell cycle arrest in human RKO cells assessed as accumulation at S phase at 2.5 uM after 48 hrs by RNase A/propidium iodide staining based flow cytometric analysis (reference value: 13.33 %); format: functional
RKO [24] = assay: Induction of cell cycle arrest in human RKO cells assessed as accumulation at sub-G1 phase at 2.5 uM after 12 hrs by RNase A/propidium iodide staining based flow cytometric analysis (reference value: 0.89 %); format: functional
HCT-116 [25] = assay: Antiproliferative activity against human HCT-116 cells assessed as inhibition of cell growth incubated for 72 hrs by SRB assay; format: functional, cell-based; conditions: HCT-116, 72 h
RKO [26] = assay: Induction of apoptosis in human RKO cells assessed as modulation of cleaved PARP expression level after 48 hrs by Western blotting analysis; format: functional, cell-based; conditions: dose 2.5-10 µM
[27] = Toxicity in BALB/c nude mouse implanted with human RKO cells assessed as change in body weight at 4 to 8 mg/kg, ip administered three times per week for 21 days; format: organism-based; conditions: in vivo, 504 h, dose 4-8 mg/kg, time 21 day
HCT-116 [28] = assay: Antimigratory activity against human HCT116 cells implanted in nude mouse assessed as inhibition of liver cells migration after 24 hrs by wound healing assay; format: functional, cell-based; conditions: dose 3-6 µM
RKO [29] = assay: Induction of cell cycle arrest in human RKO cells assessed as accumulation at G0/G1 phase at 1.25 uM after 24 hrs by RNase A/propidium iodide staining based flow cytometric analysis (reference value: 51.49 %); format: functional
RKO [30] = assay: Induction of apoptosis in human RKO cells assessed as increase in cleaved caspase 3 expression at 2.5 uM measured upto 48 hrs by Western blotting analysis; format: functional, cell-based; conditions: time hrs <=48
RKO [31] = assay: Induction of cell cycle arrest in human RKO cells assessed as accumulation at S phase at 2.5 uM after 36 hrs by RNase A/propidium iodide staining based flow cytometric analysis (reference value: 13.33 %); format: functional
RKO [32] = assay: Induction of apoptosis in human RKO cells assessed as increase in cleaved caspase 9 expression at 2.5 uM measured upto 48 hrs by Western blotting analysis; format: functional, cell-based; conditions: time hrs <=48

Chain of Glyceraldehyde-3-phosphate dehydrogenase (Homo sapiens) (P04406 2-335 limits assumed): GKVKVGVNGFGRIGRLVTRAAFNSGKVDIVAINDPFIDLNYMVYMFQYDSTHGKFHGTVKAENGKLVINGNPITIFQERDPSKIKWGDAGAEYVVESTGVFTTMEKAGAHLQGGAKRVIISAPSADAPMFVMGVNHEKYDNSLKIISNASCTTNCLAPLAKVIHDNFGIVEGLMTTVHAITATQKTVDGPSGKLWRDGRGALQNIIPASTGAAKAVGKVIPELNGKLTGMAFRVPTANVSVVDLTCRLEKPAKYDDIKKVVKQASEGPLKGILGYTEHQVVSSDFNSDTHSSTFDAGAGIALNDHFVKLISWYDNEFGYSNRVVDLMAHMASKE

For `CCCCCCCCC[C@@H](O)CC(=O)N[C@@H](CC(N)=O)C(=O)N[C@@H](CCC(N)=O)C(=O)N[C@H](CC(=O)c1cc(C)cc(O)c1C(=O)c1c(O)cccc1O)CC(C)C`, the Activity (RKO [1]) was 48.54%, the Activity (RKO [2]) was “Dose-Dependent Effect” and the Activity (RKO [3]) was “Dose-Dependent Effect”. The Activity (RKO [4]) was 0.56%, the Activity (RKO [5]) was “Dose-Dependent Effect” and the Activity (RKO [6]) was “Dose-Dependent Effect”. For the same molecule, the IC50 (CCD-841CoN) was 47.2 µM, the Activity (HCT-116 [7]) was “Active” and the Activity (RKO [8]) was 23.35%. The Activity (RKO [9]) was 41.66%, the Activity (HCT-116 [10]) was “Active” and the Activity (RKO [11]) was 29.42%. For the same molecule, the Activity (RKO [12]) was “Tde”, the Activity (RKO [13]) was “Active” and the Activity (RKO [14]) was “Active”. The Activity (RKO [15]) was 23.61%, the inhibition [16] was “Dose-Dependent Effect” and the Activity (RKO [17]) was 0.41%. For the same molecule, the Activity (RKO [18]) was 22.38%, the inhibition (HCT-116 [19]) was “Dose-Dependent Effect” and the Activity (RKO [20]) was “Dose-Dependent Effect”. The IC50 (SW480) was 2370 nM, the Activity (RKO [21]) was 1.22% and the Activity (RKO [22]) was 16.82%. The Activity (RKO [23]) was 10.43%, the Activity (RKO [24]) was 0.88% and the IC50 (HCT-116 [25]) was 3.12 µM. For the same molecule, the Activity (RKO [26]) was “Dose-Dependent Effect”, the Activity [27] was “Non-Toxic” and the inhibition (HCT-116 [28]) was “Dose-Dependent Effect”. The Activity (RKO [29]) was 46.96%, the Activity (RKO [30]) was “Active” and the Activity (RKO [31]) was 10.45%. For the same molecule, the Activity (RKO [32]) was “Active”.
